What was measured:
[1] = test system: LoVo (CCL-229) human colorectal cancer cells; test: Tumor cell anti-proliferation assay (CTG assay); type: cell-based; conditions: 96 h incubation, CellTiter-Glo, IC50 (Y=50%)
Source text: Assay 2: Tumor Cell Anti-proliferation Assay (CTG Assay)
Human colorectal cancer cells HT-29 (HTB-38) and LoVo (CCL-229) were selected for the CTG assay, the two cell lines were originally obtained from the American Type Culture Collection (ATCC). Add FBS and appropriate additives into base medium to prepare complete medium, then briefly rinse the cell layer with 0.25% (w/v) Trypsin-0.038% (w/v) EDTA solution to remove all traces of serum that contains trypsin inhibitor, after that, add appropriate volume of Trypsin-EDTA solution to flask and observe cells under an inverted microscope until cell layer is dispersed, at last, add appropriate volume of complete growth medium and aspirate cells by gently pipetting. Collect and count numbers with Vi-cell XR and adjust cell density, seed cells into 96-well opaque-walled clear bottom tissue-culture treated plates in the CO2 incubator for 20-24 hours. All the test compounds will be at 10 mM in DMSO. Compounds are then added to the cell media in 3-fold serial dilutions, the final DMSO concentration is 0.5%. Incubate plates for 96 h at 5% CO2, 37° C. Before the measurement, transfer the appropriate volume of CellTiter-Glo Buffer into the amber bottle containing CellTiter-Glo substrate to reconstitute the lyophilized enzyme/substrate mixture, mix gently, this forms the CellTiter-Glo Reagent (Promega Cat. No. G7573). Equilibrate the plate and its contents to room temperature for approximately 30 minutes, then add 100 µL of CellTiter-Glo Reagent to the assay plate, mix contents for 2 minutes on an orbital shaker to induce cell lysis, incubate at room temperature for 10 minutes to stabilize luminescent signal, at last paste the clear bottom with white back seal and record luminescence with Enspire. IC50 and GI50 values were calculated with XLFit curve fitting software using 4 Parameter Logistic Model Y=Bottom + (Top-Bottom)/(1+(IC50/X)^HillSlope).
The following Table 3 provides the IC50 (Y=50%) values for exemplary compounds of Formula (I).

[2] = target: T1, ATR kinase (Homo sapiens, UniProt Q13535); test: ATR inhibition assay (mobility shift assay, FAM-RAD17 phosphorylation); type: biochemical; conditions: substrate FAM-RAD17, ATR kinase (Eurofins)
T1 construct: purchased Eurofins 14-953
Method: Assay 1: ATR Inhibition Assay
The assay was developed and conducted at Chempartner. All the test compounds were dissolved in 100% DMSO at concentration of 20 mM, then prepare compounds and conducted the assay as follows:
1) Transfer 80 µl20 mM compound to 40 µl of 100% DMSO in a 96-well plate.
2) Serially dilute the compound by transferring 20 µl to 60 µl of 100% DMSO in the next well and so forth for a total of 10 concentrations.
3) Add 100 µl of 100% DMSO to two empty wells for no compound control and no enzyme control in the same 96-well plate. Mark the plate as source plate.
4) Transfer 40 µl of compound from source plate to a new 384-well plate as the intermediate plate.
5) Transfer 60 nl compounds to assay plate by Echo.
No. D14JP007N) into Kinase base buffer (50 mM HEPES, pH 7.5; 0.0015% Brij-35; 0.01% Triton) to prepare 2x enzyme solution, then add 10 µl of 2x enzyme solution to each well of the 384-well assay plate, incubate at room temperature for 10 min.
8) Incubate at 28° C. for specified period of time. Add 40 µl of stop buffer (100 mM HEPES, pH 7.5; 0.015% Brij-35; 0.2% Coating Reagent #3; 50 mM EDTA) to stop reaction.
9) Collect data on Caliper. Convert conversion values to inhibition values.
wherein “max” stands for DMSO control; “min” stands for low control.
Fit the data in XLFit excel add-in version 5.4.0.8 to obtain IC50 values. Equation used is: […]
wherein X means concentration in a format not transformed to logarithms.

T1 sequence (Q13535 whole entry): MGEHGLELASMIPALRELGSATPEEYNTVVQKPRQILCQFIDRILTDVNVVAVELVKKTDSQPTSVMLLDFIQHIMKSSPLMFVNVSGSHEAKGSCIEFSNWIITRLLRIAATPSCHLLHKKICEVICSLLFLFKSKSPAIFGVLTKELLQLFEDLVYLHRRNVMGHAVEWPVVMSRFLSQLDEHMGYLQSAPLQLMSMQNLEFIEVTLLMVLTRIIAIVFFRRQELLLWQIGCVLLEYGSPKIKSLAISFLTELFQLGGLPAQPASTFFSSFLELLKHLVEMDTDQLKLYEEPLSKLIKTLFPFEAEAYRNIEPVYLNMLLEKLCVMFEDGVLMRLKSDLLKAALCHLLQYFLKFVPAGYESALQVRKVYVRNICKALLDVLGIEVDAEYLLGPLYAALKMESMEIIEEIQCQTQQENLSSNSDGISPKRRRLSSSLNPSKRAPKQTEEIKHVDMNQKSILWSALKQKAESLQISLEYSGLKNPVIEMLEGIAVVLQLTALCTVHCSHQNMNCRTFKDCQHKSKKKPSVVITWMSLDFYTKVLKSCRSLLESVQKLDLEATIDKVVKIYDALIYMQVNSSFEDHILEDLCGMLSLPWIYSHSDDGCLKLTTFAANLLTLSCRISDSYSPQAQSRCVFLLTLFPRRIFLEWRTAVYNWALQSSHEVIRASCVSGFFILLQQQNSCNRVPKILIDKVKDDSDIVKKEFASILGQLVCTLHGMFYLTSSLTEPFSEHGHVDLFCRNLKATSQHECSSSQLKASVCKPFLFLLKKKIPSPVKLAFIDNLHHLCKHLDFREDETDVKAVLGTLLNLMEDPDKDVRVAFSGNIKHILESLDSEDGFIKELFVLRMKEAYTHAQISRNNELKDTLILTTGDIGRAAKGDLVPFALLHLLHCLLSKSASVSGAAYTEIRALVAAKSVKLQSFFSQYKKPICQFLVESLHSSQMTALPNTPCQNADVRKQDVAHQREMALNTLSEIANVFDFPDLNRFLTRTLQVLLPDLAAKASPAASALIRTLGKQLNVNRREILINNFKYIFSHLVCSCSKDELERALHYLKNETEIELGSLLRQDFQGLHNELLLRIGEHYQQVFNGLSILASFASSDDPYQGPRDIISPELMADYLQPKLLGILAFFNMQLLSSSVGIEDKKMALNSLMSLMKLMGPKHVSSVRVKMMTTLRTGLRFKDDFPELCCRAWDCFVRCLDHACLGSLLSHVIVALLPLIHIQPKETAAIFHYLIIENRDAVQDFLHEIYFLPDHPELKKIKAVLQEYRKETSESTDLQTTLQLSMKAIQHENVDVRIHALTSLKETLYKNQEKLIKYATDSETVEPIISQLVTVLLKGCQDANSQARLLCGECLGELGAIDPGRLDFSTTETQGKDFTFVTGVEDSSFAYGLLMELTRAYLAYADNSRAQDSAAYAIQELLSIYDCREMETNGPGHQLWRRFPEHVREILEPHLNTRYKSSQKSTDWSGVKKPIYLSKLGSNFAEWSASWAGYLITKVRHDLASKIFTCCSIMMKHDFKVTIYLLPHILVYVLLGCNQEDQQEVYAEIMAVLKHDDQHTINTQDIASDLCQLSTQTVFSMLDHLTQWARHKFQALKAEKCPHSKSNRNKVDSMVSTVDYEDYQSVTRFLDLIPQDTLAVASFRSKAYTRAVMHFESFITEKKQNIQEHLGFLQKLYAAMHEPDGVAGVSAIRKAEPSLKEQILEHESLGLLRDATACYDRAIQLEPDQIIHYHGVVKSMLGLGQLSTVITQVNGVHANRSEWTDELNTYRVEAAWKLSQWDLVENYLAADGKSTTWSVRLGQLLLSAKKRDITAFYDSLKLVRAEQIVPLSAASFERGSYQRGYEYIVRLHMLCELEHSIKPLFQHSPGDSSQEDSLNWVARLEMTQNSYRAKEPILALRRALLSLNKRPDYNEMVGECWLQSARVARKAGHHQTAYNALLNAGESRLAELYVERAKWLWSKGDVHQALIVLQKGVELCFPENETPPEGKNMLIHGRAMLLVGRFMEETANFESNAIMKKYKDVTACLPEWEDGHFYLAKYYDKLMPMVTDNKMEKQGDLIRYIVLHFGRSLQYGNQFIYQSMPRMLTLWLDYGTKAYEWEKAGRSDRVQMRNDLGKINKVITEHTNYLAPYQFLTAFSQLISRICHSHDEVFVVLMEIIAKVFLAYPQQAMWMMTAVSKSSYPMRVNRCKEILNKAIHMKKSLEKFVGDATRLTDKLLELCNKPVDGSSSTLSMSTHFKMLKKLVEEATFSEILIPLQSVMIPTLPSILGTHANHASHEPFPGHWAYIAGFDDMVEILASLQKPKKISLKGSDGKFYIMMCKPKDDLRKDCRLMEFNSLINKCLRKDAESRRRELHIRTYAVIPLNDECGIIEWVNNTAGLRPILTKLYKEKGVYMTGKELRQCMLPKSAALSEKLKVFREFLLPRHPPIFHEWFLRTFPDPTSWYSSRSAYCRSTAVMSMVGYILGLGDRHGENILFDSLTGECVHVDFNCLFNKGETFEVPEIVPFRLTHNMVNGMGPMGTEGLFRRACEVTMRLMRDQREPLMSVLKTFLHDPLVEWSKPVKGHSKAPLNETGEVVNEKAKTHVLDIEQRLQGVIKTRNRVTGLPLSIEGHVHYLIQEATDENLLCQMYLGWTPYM
T1 sequence (Q8WXE1 whole entry partner): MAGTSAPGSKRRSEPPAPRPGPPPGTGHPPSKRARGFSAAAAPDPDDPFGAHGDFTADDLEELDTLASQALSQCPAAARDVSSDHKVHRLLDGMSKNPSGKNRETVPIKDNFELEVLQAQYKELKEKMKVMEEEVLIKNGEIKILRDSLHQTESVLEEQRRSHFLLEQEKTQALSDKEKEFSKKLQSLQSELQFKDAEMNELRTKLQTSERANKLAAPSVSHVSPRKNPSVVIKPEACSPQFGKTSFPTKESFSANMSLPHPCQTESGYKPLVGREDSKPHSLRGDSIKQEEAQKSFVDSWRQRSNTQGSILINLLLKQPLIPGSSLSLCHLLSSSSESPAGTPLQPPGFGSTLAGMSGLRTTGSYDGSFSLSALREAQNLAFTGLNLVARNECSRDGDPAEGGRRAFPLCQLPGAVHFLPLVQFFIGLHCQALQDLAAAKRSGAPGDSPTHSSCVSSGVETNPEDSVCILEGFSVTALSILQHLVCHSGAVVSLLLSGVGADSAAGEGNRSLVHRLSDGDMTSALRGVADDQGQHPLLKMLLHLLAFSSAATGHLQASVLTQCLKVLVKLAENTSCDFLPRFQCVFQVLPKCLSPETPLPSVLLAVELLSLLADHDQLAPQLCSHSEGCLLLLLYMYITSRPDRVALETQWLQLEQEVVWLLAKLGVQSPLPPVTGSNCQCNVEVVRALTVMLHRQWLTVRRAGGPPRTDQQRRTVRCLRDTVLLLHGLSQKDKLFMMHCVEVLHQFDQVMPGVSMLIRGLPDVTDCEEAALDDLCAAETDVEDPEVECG

Row | SMILES | IC50 [1] [µM] | IC50 [2] [µM]
1 | C[C@@H]1COCCN1c1cc(C2(S(C)(=O)=O)CC2)cc(Nc2ccn[nH]2)n1 [Compound 1, (R)-6-(3-methylmorpholino)-4-(1-(methylsulfonyl)cyclopropyl)-N-(1H-pyrazol-5-yl)pyridin-2-amine] | 0.334 | 0.0144
2 | C[C@@H]1COCCN1c1cc(C2(S(C)(=O)=O)CC2)nc(Nc2ccn[nH]2)n1 [Compound 5, (R)-4-(3-methylmorpholino)-6-(1-(methylsulfonyl)cyclopropyl)-N-(1H-pyrazol-5-yl)pyrimidin-2-amine] | 0.653 | –
3 | Cc1cc(Nc2nc(N3CCOC[C@H]3C)cc(C(C)(C)S(C)(=O)=O)n2)[nH]n1 [Compound 8, (R)-N-(3-methyl-1H-pyrazol-5-yl)-4-(3-methylmorpholino)-6-(2-(methylsulfonyl)propan-2-yl)pyrimidin-2-amine] | 0.398 | 0.0132
4 | Cc1cc(Nc2nc(N3CCOC[C@H]3C)cc(C3(C#N)CC3)n2)[nH]n1 [Compound 9, (R)-1-(2-((3-methyl-1H-pyrazol-5-yl)amino)-6-(3-methylmorpholino)pyrimidin-4-yl)cyclopropanecarbonitrile] | 0.538 | 0.022
5 | C[C@@H]1COCCN1c1cc(N(C)S(C)(=O)=O)cc(Nc2ccn[nH]2)n1 [Compound 13, (R)-N-(2-((1H-pyrazol-5-yl)amino)-6-(3-methylmorpholino)pyridin-4-yl)-N-methylmethanesulfonamide] | 0.807 | –
6 | Cc1cc(Nc2cc(C3(S(C)(=O)=O)CC3)cc(N3CCOC[C@H]3C)n2)[nH]n1 [Compound 19, 4-(1-methanesulfonylcyclopropyl)-N-(3-methyl-1H-pyrazol-5-yl)-6-[(3R)-3-methylmorpholin-4-yl]pyridin-2-amine] | 0.225 | 0.0103
7 | C[C@@H]1COCCN1c1cc(C(C)(C)C#N)cc(Nc2ccn[nH]2)n1 [Compound 24, (R)-2-(2-((1H-pyrazol-5-yl)amino)-6-(3-methylmorpholino)pyridin-4-yl)-2-methylpropanenitrile] | 0.428 | 0.017
8 | Cc1cnn(C)c1-c1cc(N2CCOC[C@H]2C)nc(Nc2ccn[nH]2)c1F [Compound 33, (R)-4-(1,4-dimethyl-1H-pyrazol-5-yl)-3-fluoro-6-(3-methylmorpholino)-N-(1H-pyrazol-5-yl)pyridin-2-amine] | 0.842 | –
9 | C[C@@H]1COCCN1c1cc(C2(S(C)(=O)=O)CC2)c(F)c(Nc2ccn[nH]2)n1 [Compound 34, (R)-3-fluoro-6-(3-methylmorpholino)-4-(1-(methylsulfonyl)cyclopropyl)-N-(1H-pyrazol-5-yl)pyridin-2-amine] | 0.442 | –
10 | C[C@@H]1COCCN1c1cc(C2(C#N)CCOCC2)cc(Nc2ccn[nH]2)n1 [Compound 39, (R)-4-(2-((1H-pyrazol-5-yl)amino)-6-(3-methylmorpholino)pyridin-4-yl) tetrahydro-2H-pyran-4-carbonitrile] | 0.844 | –
11 | C[C@@H]1COCCN1c1cc(C2(C#N)CCCC2)nc(Nc2ccn[nH]2)n1 [Compound 40, (R)-1-(2-((1H-pyrazol-5-yl)amino)-6-(3-methylmorpholino)pyrimidin-4-yl) cyclopentane-1-carbonitrile] | 0.698 | –

Continued by falling IC50 [1], values first:

Row | IC50 [1] [µM] | IC50 [2] [µM] | SMILES
12 | 1.31 | – | C[C@@H]1COCCN1c1cc(C2(S(C)(=O)=O)CCOCC2)nc(Nc2ccn[nH]2)n1 [Compound 11, (R)-4-(3-methylmorpholino)-6-(4-(methylsulfonyl)tetrahydro-2H-pyran-4-yl)-N-(1H-pyrazol-5-yl)pyrimidin-2-amine]
13 | 1.01 | – | C[C@@H]1COCCN1c1cc(C2(S(C)(=O)=O)CCOCC2)cc(Nc2ccn[nH]2)n1 [Compound 45, (R)-6-(3-methylmorpholino)-4-(4-(methylsulfonyl)tetrahydro-2H-pyran-4-yl)-N-(1H-pyrazol-5-yl)pyridin-2-amine]
14 | 0.966 | – | Cc1cc(Nc2cc(C3(S(C)(=O)=O)CCOCC3)cc(N3CCOC[C@H]3C)n2)[nH]n1 [Compound 36, (R)-N-(3-methyl-1H-pyrazol-5-yl)-6-(3-methylmorpholino)-4-(4-(methylsulfonyl)tetrahydro-2H-pyran-4-yl)pyridin-2-amine]
15 | 0.872 | 0.028 | C[C@@H]1COCCN1c1cc(C(C)(C)S(C)(=O)=O)nc(Nc2ccn[nH]2)n1 [Compound 7, (R)-4-(3-methylmorpholino)-6-(2-(methylsulfonyl)propan-2-yl)-N-(1H-pyrazol-5-yl)pyrimidin-2-amine]
16 | 0.8 | – | C[C@@H]1COCCN1c1cc(C2(C#N)CCCC2)cc(Nc2ccn[nH]2)n1 [Compound 37, 1-{2-[(3R)-3-methylmorpholin-4-yl]-6-[(1H-pyrazol-5-yl)amino]pyridin-4-yl}cyclopentane-1-carbonitrile]
17 | 0.611 | 0.013 | Cc1cc(Nc2nc(N3CCOC[C@H]3C)cc(C3(S(C)(=O)=O)CCOCC3)n2)[nH]n1 [Compound 12, (R)-N-(3-methyl-1H-pyrazol-5-yl)-4-(3-methylmorpholino)-6-(4-(methylsulfonyl)tetrahydro-2H-pyran-4-yl)pyrimidin-2-amine]
18 | 0.594 | – | C[C@@H]1COCCN1c1cc(C2(S(C)(=O)=O)CC2)c(CO)c(Nc2ccn[nH]2)n1 [Compound 17, (R)-(2-((1H-pyrazol-5-yl)amino)-6-(3-methylmorpholino)-4-(1-(methylsulfo-nyl)cyclopropyl)pyridin-3-yl)methanol]
19 | 0.515 | – | Cc1cnn(C)c1-c1cc(N2CCOC[C@H]2C)nc(Nc2ccn[nH]2)c1CO [Compound 15, (R)-(2-((1H-pyrazol-5-yl)amino)-4-(1,4-dimethyl-1H-pyrazol-5-yl)-6-(3-methylmorpholino)pyridin-3-yl)methanol]
20 | 0.41 | – | Cc1cc(Nc2cc(-c3c(C)cnn3C)cc(N3CCOC[C@H]3C)n2)[nH]n1 [Compound 46, (R)-4-(1,4-dimethyl-1H-pyrazol-5-yl)-N-(3-methyl-1H-pyrazol-5-yl)-6-(3-methylmorpholino)pyridin-2-amine]
21 | 0.401 | 0.016 | Cc1cc(Nc2nc(N3CCOC[C@H]3C)cc(C3(S(C)(=O)=O)CC3)n2)[nH]n1 [Compound 6, 4-(1-methanesulfonylcyclopropyl)-N-(3-methyl-1H-pyrazol-5-yl)-6-[(3R)-3-methylmorpholin-4-yl]pyrimidin-2-amine]
22 | 0.39 | – | Cc1cc(Nc2cc(-c3c(C)noc3C)cc(N3CCOC[C@H]3C)n2)[nH]n1 [Compound 47, (R)-4-(3,5-dimethylisoxazol-4-yl)-N-(3-methyl-1H-pyrazol-5-yl)-6-(3-methylmorpholino)pyridin-2-amine]
23 | 0.388 | 0.0155 | Cc1cc(Nc2cc(-c3c(C)nnn3C)cc(N3CCOC[C@H]3C)n2)[nH]n1 [Compound 23, 4-(dimethyl-1H-1,2,3-triazol-5-yl)-N-(3-methyl-1H-pyrazol-5-yl)-6-[(3R)-3-methylmorpholin-4-yl]pyridin-2-amine]
24 | 0.385 | 0.0163 | Cc1cnn(C)c1-c1cc(Nc2ccn[nH]2)nc(N2CCOC[C@H]2C)c1 [Compound 4, (R)-4-(1,4-dimethyl-1H-pyrazol-5-yl)-6-(3-methylmorpholino)-N-(1H-pyrazol-5-yl)pyridin-2-amine]
25 | 0.263 | 0.01 | Cc1cc(Nc2nc(N3CCOC[C@H]3C)cc(C(C)(C)C#N)n2)[nH]n1 [Compound 10, (R)-2-methyl-2-(2-((3-methyl-1H-pyrazol-5-yl)amino)-6-(3-methylmorpho-lino)pyrimidin-4-yl)propanenitrile]
26 | 0.192 | – | Cc1noc(C)c1-c1cc(Nc2ccn[nH]2)nc(N2CCOC[C@H]2C)c1 [Compound 22, (R)-4-(3,5-dimethylisoxazol-4-yl)-6-(3-methylmorpholino)-N-(1H-pyrazol-5-yl)pyridin-2-amine]

— patent US20230339927A1, “ATR INHIBITORS AND USES THEREOF” (ANTENGENE DISCOVERY LIMITED, priority 2020, published 2023)
